According to patent publication US11098043B2, “Certain imidazopyridines as cyclic AMP response element binding (CREB) binding protein (CBP) inhibitors and uses thereof” (University of Massachusetts, priority 2017, dated 2021):

What was measured:
BRD4(1) bromodomain = target: T1, BRD4(1) bromodomain (Homo sapiens, UniProt O60885); test: AlphaScreen in vitro binding assay with BRD4; conditions: isolated BRD4 bromodomain, means of at least two determinations
T1 construct: final concentrations of His-BRD4(1) at 20 nM
Protocol: (§1) To determine the binding selectivity of compounds provided, AlphaScreen in vitro binding assays were performed with either CBP or BRD4.
Assays were performed with minor modifications from the manufacturer's protocol (Perkin Elmer, USA). All reagents were diluted in AlphaScreen™ buffer (50 mM HEPES, 150 mM NaCl, 0.01% v/v Tween-20, 0.1% w/v BSA, pH 7.4). After addition of Alpha beads to master solutions, all subsequent steps were performed under low light conditions. […] Plates were spun down at 1000 rpm. A 10-point 1: √{square root over (sqrt(10))} serial dilution of compounds in DMSO was prepared at 200× the final concentration. 100 nL of compound from these stock plates were added by pin transfer using a Janus Workstation (PerkinElmer). A 2× solution of streptavidin-coated donor beads with a final concentration of 10 μg/ml was added in a 10 μL volume. The plates were spun down again at 1000 rpm and sealed with foil to prevent light exposure and evaporation. The plates were then incubated at room temperature for 1 hour and read on an Envision 2104 (PerkinElmer) using the manufacturer's protocol. IC50 values were calculated using a 4-parameter logistic curve in Prism 6 (GraphPad Software, USA) after normalization to DMSO-treated negative control wells.

CBP bromodomain = target: T2, CBP bromodomain (Homo sapiens, UniProt Q92793); test: AlphaScreen in vitro binding assay with CBP; conditions: for IC50: AlphaScreen, isolated CBP bromodomain, means of at least two determinations; for Selectivity Value [BRD4(1) IC50 (μM)/CBP IC50 (μM)]: ratio BRD4(1) IC50 / CBP IC50
T2 construct: docked complex of Compound 21 with CBP bromodomain
Protocol: as §1
Assays were performed with minor modifications from the manufacturer's protocol (Perkin Elmer, USA). All reagents were diluted in AlphaScreen™ buffer (50 mM HEPES, 150 mM NaCl, 0.01% v/v Tween-20, 0.1% w/v BSA, pH 7.4). After addition of Alpha beads to master solutions, all subsequent steps were performed under low light conditions. A 2× solution of components with final concentrations of His-BRD4(1) at 20 nM or His-CBP at 50 nM, Ni-coated Acceptor bead at 10 μg/ml, and biotinylated-JQ1 at 10 nM or biotinylated peptide at 100 nM was added in 10 μL to 384-well plates (AlphaPlate-384, PerkinElmer) using an EL406 liquid handler (Biotek, USA). Plates were spun down at 1000 rpm. A 10-point 1: √{square root over (sqrt(10))} serial dilution of compounds in DMSO was prepared at 200× the final concentration. 100 nL of compound from these stock plates were added by pin transfer using a Janus Workstation (PerkinElmer). A 2× solution of streptavidin-coated donor beads with a final concentration of 10 μg/ml was added in a 10 μL volume. The plates were spun down again at 1000 rpm and sealed with foil to prevent light exposure and evaporation. The plates were then incubated at room temperature for 1 hour and read on an Envision 2104 (PerkinElmer) using the manufacturer's protocol. IC50 values were calculated using a 4-parameter logistic curve in Prism 6 (GraphPad Software, USA) after normalization to DMSO-treated negative control wells.

T2 sequence (Q92793 1085-1192 limits assumed): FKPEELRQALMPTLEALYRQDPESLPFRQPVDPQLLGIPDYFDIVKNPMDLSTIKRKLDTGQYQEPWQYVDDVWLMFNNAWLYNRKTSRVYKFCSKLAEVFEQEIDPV

IC50 (BRD4(1) bromodomain) [µM] | IC50 (CBP bromodomain) [µM] | Selectivity Value [BRD4(1) IC50 (μM)/CBP IC50 (μM)] (CBP bromodomain) | SMILES
6.22 | 0.759 | 8 | COc1ccc(CCc2nc3cc(-c4c(C)noc4C)ccn3c2NC2CCCCC2)cc1OC [Compound 33]
22.6 | 3.52 | 6 | COc1ccc(CCc2nc3cc(-c4c(C)noc4C)ccn3c2NC(C)C)cc1OC [Compound 34]
8.18 | 0.737 | 11 | Cc1noc(C)c1-c1ccn2c(NC3CCCCC3)c(CCc3ccc(OC(C)C)cc3)nc2c1 [Compound 36]
11 | 1.57 | 7 | COc1ccc(CCc2nc3cc(-c4c(C)noc4C)ccn3c2N[C@H](C)c2ccccc2)cc1 [Compound 37]
